Test results: patent US20250041307A1, “Uses of Bicyclic Compounds for the Treatment of Diseases” (Athira Pharma, Inc., priority 2021, published 2025)

Experiments:
[1] = system: Rat primary cortical neuron cultures; assay: Protection from neurotoxicity in vitro (Cell Titer-Glo viability); format: cell-based; parameters: key to Protection of cell viability, statistical significance vs. insult control: NS=not significant; +=p<0.05; ++=p<0.01; +++=p<0.001
Experimental: HGF/MET signaling activation is expected to protect cells, including neurons, from cell death. […] Hydrogen peroxide (H2O2) treatment produces toxic oxidative stress. Bacteria-derived lipopolysaccharide (LPS) treatment induces inflammatory cell death. Treatment with excess glutamate (Glut) produces excitotoxicity in neuron cultures. Treatment with 1-methyl-4-phenylpyridinium (MPP^+) causes cell death by inhibition of mitochondrial function.
Rat primary cortical neuron cultures were grown at 37° C., 5% CO2 in Complete Neurobasal Medium supplemented with B27/GDNF/BDNF containing 10% FBS until maturity and were then seeded in 384-well plate at 5,000 cells/well. Cultures were then treated for 15 minutes with 1 uM, 100 nM, 10 nM, 1 nM, or 0.1 nM of compound 1a. Cells were then subjected to individual conditional insults for 24 hours at the following concentrations: H2O2 at 1 uM, LPS at 1 uM, glutamate at 25 uM, MPP+ at 500 uM. All treatments contained recombinant human HGF (R&D Systems) at a concentration of 5 ng/ml.
To quantify neuroprotection, cell viability was measured with the Cell Titer-Glo Luminescent Cell Viability Assay (Promega, Cat #G7571). Data was normalized to DMSO+HGF control set at 100% cell viability. Statistical analyses for each group (n=4) were performed using one-way ANOVA with Tukey's Multiple comparison test.
Data is reported as statistical significance vs. insult control, with NS=not significant, +=p<0.05, ++=p<0.01, and +++=p<0.001.

[2] = system: scopolamine-induced cognitive impairment; assay: Scopolamine-induced cognitive impairment, T-maze spontaneous alternation task; format: in vivo, CD-1 mice; parameters: key to Significance (compared to scopolamine only): * = p < 0.05; ** = p < 0.01; ns = not significant; settings: mice; for Spontaneous alternations %: scopolamine 0.89 mg/kg; for Significance (compared to scopolamine only): spontaneous alternations
From the text: Mild cognitive impairment can be assessed in rodent models via delivery of various compounds that interfere with normal neurotransmitter signaling. Scopolamine is a compound that is well-known to antagonize muscarinic acetylcholine receptors, nicotinic receptors, as well as glutamatergic receptors such as NMDA receptors. Thus, delivery of scopolamine results in cognitive impairment, which can be assessed in a variety of cognitive tasks. Positive modulation of the HGF/MET system can promote NMDA receptor activation and results in pro-cognitive effects. Two test compounds, Compound 1a and Compound 5a, were evaluated for their ability to protect against scopolamine-induced cognitive impairment.
In this study, mild cognitive impairment was modeled in otherwise healthy male CD-1 mice (4-5 weeks old at study start) by acute delivery of 0.89 mg/kg scopolamine (dissolved in saline). Test compounds were administered via oral gavage 0.5 hours prior to scopolamine exposure, and cognitive performance was assessed in the T-maze spontaneous alternation task 0.5 hours after scopolamine exposure (1 hour following test compound exposure). The experimental protocol consisted of one single session, which started with 1 “forced-choice” trial, followed by 14 “free-choice” trials. In the first “forced-choice” trial, the animal was confined 5 seconds in the start arm and was then released while either the left or right goal arm was blocked by a horizontal door. After the mouse entered the open goal arm and returned to the start position, the left or right goal door was opened, and the animal was allowed to choose freely between the left and right goal arm (“free choice trials”). The animal was considered to have entered into an arm when it placed its four paws in the arm. Normal animals will choose to explore the previously-unexplored arm, which is recorded as a spontaneous alternation. […] The session was terminated, and the animal was removed from the maze as soon as 14 free-choice trials had been performed or 10 min had elapsed, whichever event occurred first.
This percentage was defined as entry into a different goal arm of the T maze over successive trials (e.g., left-right-left-right) and was calculated using the formula: (% alternations=Number of Alternations/14*100). Both compounds attenuated the degree of scopolamine-induced cognitive impairment, as indicated by increased percent of spontaneous alternations compared to scopolamine-only controls. Statistical analysis was accomplished via 1-way ANOVA with Dunnet's multiple comparisons post-test.

## CCC(C)CN1CC2N(C(=O)c3ccc(C(F)(F)F)cc3)CCC(=O)N2[C@@H](C)C1=O (some centres unmarked) [Compound 1a]
[1]; broad range of concentrations, entire cohort of insults tested
  Neuroprotective effect on rat neurons in culture: effective neuroprotective treatment
[1]; insult Glutamate (25 uM) 24 hours, 0.1 nM + HGF (5 ng/ml)
  Protection of cell viability, statistical significance vs. insult control: +++ (+++=p<0.001)
[1]; insult Glutamate (25 uM) 24 hours, 1 nM + HGF (5 ng/ml)
  Protection of cell viability, statistical significance vs. insult control: +++ (+++=p<0.001)
[1]; insult Glutamate (25 uM) 24 hours, 100 nM (first column so headed) + HGF (5 ng/ml)
  Protection of cell viability, statistical significance vs. insult control: +++ (+++=p<0.001)
[1]; insult Glutamate (25 uM) 24 hours, 100 nM (second column so headed) + HGF (5 ng/ml)
  Protection of cell viability, statistical significance vs. insult control: +++ (+++=p<0.001)
[1]; insult Glutamate (25 uM) 24 hours, 1 uM + HGF (5 ng/ml)
  Protection of cell viability, statistical significance vs. insult control: +++ (+++=p<0.001)
[1]; insult H2O2 (1 uM) 24 hours, 0.1 nM + HGF (5 ng/ml)
  Protection of cell viability, statistical significance vs. insult control: +++ (+++=p<0.001)
[1]; insult H2O2 (1 uM) 24 hours, 1 nM + HGF (5 ng/ml)
  Protection of cell viability, statistical significance vs. insult control: +++ (+++=p<0.001)
[1]; insult H2O2 (1 uM) 24 hours, 100 nM (first column so headed) + HGF (5 ng/ml)
  Protection of cell viability, statistical significance vs. insult control: +++ (+++=p<0.001)
[1]; insult H2O2 (1 uM) 24 hours, 100 nM (second column so headed) + HGF (5 ng/ml)
  Protection of cell viability, statistical significance vs. insult control: +++ (+++=p<0.001)
[1]; insult H2O2 (1 uM) 24 hours, 1 uM + HGF (5 ng/ml)
  Protection of cell viability, statistical significance vs. insult control: +++ (+++=p<0.001)
[1]; insult LPS (1 uM) 24 hours, 0.1 nM + HGF (5 ng/ml)
  Protection of cell viability, statistical significance vs. insult control: +++ (+++=p<0.001)
[1]; insult LPS (1 uM) 24 hours, 1 nM + HGF (5 ng/ml)
  Protection of cell viability, statistical significance vs. insult control: NS
[1]; insult LPS (1 uM) 24 hours, 100 nM (first column so headed) + HGF (5 ng/ml)
  Protection of cell viability, statistical significance vs. insult control: +++ (+++=p<0.001)
[1]; insult LPS (1 uM) 24 hours, 100 nM (second column so headed) + HGF (5 ng/ml)
  Protection of cell viability, statistical significance vs. insult control: +++ (+++=p<0.001)
[1]; insult LPS (1 uM) 24 hours, 1 uM + HGF (5 ng/ml)
  Protection of cell viability, statistical significance vs. insult control: +++ (+++=p<0.001)
[1]; insult MPP+ (500 uM) 24 hours, 0.1 nM + HGF (5 ng/ml)
  Protection of cell viability, statistical significance vs. insult control: +++ (+++=p<0.001)
[1]; insult MPP+ (500 uM) 24 hours, 1 nM + HGF (5 ng/ml)
  Protection of cell viability, statistical significance vs. insult control: +++ (+++=p<0.001)
[1]; insult MPP+ (500 uM) 24 hours, 100 nM (first column so headed) + HGF (5 ng/ml)
  Protection of cell viability, statistical significance vs. insult control: +++ (+++=p<0.001)
[1]; insult MPP+ (500 uM) 24 hours, 100 nM (second column so headed) + HGF (5 ng/ml)
  Protection of cell viability, statistical significance vs. insult control: +++ (+++=p<0.001)
[1]; insult MPP+ (500 uM) 24 hours, 1 uM + HGF (5 ng/ml)
  Protection of cell viability, statistical significance vs. insult control: +++ (+++=p<0.001)
[2]; 0.5 mg/kg via PO
  Spontaneous alternations %: 52%
  Significance (compared to scopolamine only): ** (** = p < 0.01)
[2]; 2 mg/kg via PO
  Spontaneous alternations %: 55%
  Significance (compared to scopolamine only): ** (** = p < 0.01)
[2]; 8 mg/kg via PO
  Spontaneous alternations %: 47%
  Significance (compared to scopolamine only): ns
[2]; 16 mg/kg via PO
  Spontaneous alternations %: 51%
  Significance (compared to scopolamine only): * (* = p < 0.05)
[2]; 32 mg/kg via PO
  Spontaneous alternations %: 55%
  Significance (compared to scopolamine only): ** (** = p < 0.01)

## CCC(C)CN1CC2N(Cc3ccc(C(F)(F)F)cc3)CCC(=O)N2[C@@H](C)C1=O (some centres unmarked) [Compound 5a]
[2]; 1.25 mg/kg via PO
  Spontaneous alternations %: 51%
  Significance (compared to scopolamine only): * (* = p < 0.05)
[2]; 2.5 mg/kg via PO
  Spontaneous alternations %: 57%
  Significance (compared to scopolamine only): ** (** = p < 0.01)
[2]; 5 mg/kg via PO
  Spontaneous alternations %: 52%
  Significance (compared to scopolamine only): * (* = p < 0.05)
[2]; 10 mg/kg via PO
  Spontaneous alternations %: 55%
  Significance (compared to scopolamine only): ** (** = p < 0.01)
[2]; 20 mg/kg via PO
  Spontaneous alternations %: 52%
  Significance (compared to scopolamine only): * (* = p < 0.05)
